Patent US20260262643A1, “HERBICIDAL BENZOXAZINES” (FMC CORPORATION, priority 2022, published 2026)

Key:
barnyardgrass [1] = experiment: Test C preemergence; assay type: in vivo, Echinochloa crusgalli; conditions: for Barnyardgrass plant response rating: preemergence, 0 to 100 scale (0 no effect, 100 complete control)
Summary of the method: (§1)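 Greenhouse herbicide screen, 10-day duration. Test chemicals in solvent/surfactant blend were sprayed onto soil at sowing (pre) or onto 2–10 cm seedlings at one to two leaves (post); injury scored visually against controls, 0 no effect to 100 complete control.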

blackgrass [2] = experiment: Test C preemergence; assay type: in vivo, Alopecurus myosuroides; conditions: for Blackgrass plant response rating: preemergence, 0 to 100 scale (0 no effect, 100 complete control)
Summary of the method: as §1

corn [3] = experiment: Test C preemergence; assay type: in vivo, Zea mays; conditions: for Corn plant response rating: preemergence, 0 to 100 scale (0 no effect, 100 complete control)
Summary of the method: as §1

green foxtail [4] = experiment: Test C preemergence; assay type: in vivo, Setaria viridis; conditions: for Foxtail, Green plant response rating: preemergence, 0 to 100 scale (0 no effect, 100 complete control)
Summary of the method: as §1

kochia [5] = experiment: Test C preemergence; assay type: in vivo, Bassia scoparia; conditions: for Kochia plant response rating: preemergence, 0 to 100 scale (0 no effect, 100 complete control)
Summary of the method: as §1

oat, wild [6] = experiment: Test C preemergence; assay type: in vivo, Avena fatua; conditions: for Oat, Wild plant response rating: preemergence, 0 to 100 scale (0 no effect, 100 complete control)
Summary of the method: as §1

pigweed, palmer [7] = experiment: Test C preemergence; assay type: in vivo, Amaranthus palmeri; conditions: for Pigweed, Palmer plant response rating: preemergence, 0 to 100 scale (0 no effect, 100 complete control)
Summary of the method: as §1

ragweed [8] = experiment: Test C preemergence; assay type: in vivo, Ambrosia artemisiifolia; conditions: for Ragweed plant response rating: preemergence, 0 to 100 scale (0 no effect, 100 complete control)
Summary of the method: as §1

ryegrass, Italian [9] = experiment: Test C preemergence; assay type: in vivo, Lolium multiflorum; conditions: for Ryegrass, Italian plant response rating: preemergence, 0 to 100 scale (0 no effect, 100 complete control)
Summary of the method: as §1

soybean [10] = experiment: Test C preemergence; assay type: in vivo, Glycine max; conditions: for Soybean plant response rating: preemergence, 0 to 100 scale (0 no effect, 100 complete control)
Summary of the method: as §1

wheat [11] = experiment: Test C preemergence; assay type: in vivo, Triticum aestivum; conditions: for Wheat plant response rating: preemergence, 0 to 100 scale (0 no effect, 100 complete control)
Summary of the method: as §1

barnyardgrass [12] = experiment: Test C postemergence; assay type: in vivo, Echinochloa crusgalli; conditions: 10 days, 0 to 100 scale (0 no effect, 100 complete control)
Summary of the method: as §1

blackgrass [13] = experiment: Test C postemergence; assay type: in vivo, Alopecurus myosuroides; conditions: 10 days, 0 to 100 scale (0 no effect, 100 complete control)
Summary of the method: as §1

corn [14] = experiment: Test C postemergence; assay type: in vivo, Zea mays; conditions: 10 days, 0 to 100 scale (0 no effect, 100 complete control)
Summary of the method: as §1

green foxtail [15] = experiment: Test C postemergence; assay type: in vivo, Setaria viridis; conditions: 10 days, 0 to 100 scale (0 no effect, 100 complete control)
Summary of the method: as §1

kochia [16] = experiment: Test C postemergence; assay type: in vivo, Bassia scoparia; conditions: 10 days, 0 to 100 scale (0 no effect, 100 complete control)
Summary of the method: as §1

oat, wild [17] = experiment: Test C postemergence; assay type: in vivo, Avena fatua; conditions: 10 days, 0 to 100 scale (0 no effect, 100 complete control)
Summary of the method: as §1

pigweed, palmer [18] = experiment: Test C postemergence; assay type: in vivo, Amaranthus palmeri; conditions: 10 days, 0 to 100 scale (0 no effect, 100 complete control)
Summary of the method: as §1

ragweed [19] = experiment: Test C postemergence; assay type: in vivo, Ambrosia artemisiifolia; conditions: 10 days, 0 to 100 scale (0 no effect, 100 complete control)
Summary of the method: as §1

ryegrass, Italian [20] = experiment: Test C postemergence; assay type: in vivo, Lolium multiflorum; conditions: 10 days, 0 to 100 scale (0 no effect, 100 complete control)
Summary of the method: as §1

soybean [21] = experiment: Test C postemergence; assay type: in vivo, Glycine max; conditions: 10 days, 0 to 100 scale (0 no effect, 100 complete control)
Summary of the method: as §1

wheat [22] = experiment: Test C postemergence; assay type: in vivo, Triticum aestivum; conditions: 10 days, 0 to 100 scale (0 no effect, 100 complete control)
Summary of the method: as §1

galium = experiment: Test C postemergence; assay type: in vivo, Galium aparine; conditions: 10 days, 0 to 100 scale (0 no effect, 100 complete control)
Summary of the method: as §1

horseweed = experiment: Test C postemergence; assay type: in vivo, Erigeron canadensis; conditions: 10 days, 0 to 100 scale (0 no effect, 100 complete control)
Summary of the method: as §1

barnyardgrass [23] = experiment: Test D flooded paddy test; assay type: in vivo, Echinochloa crus-galli; conditions: 250 g ai/ha, applied to paddy water, visual rating after 13 to 14 days, scale 0 to 100 (0 no effect, 100 complete control)
Summary of the method: (§2)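 Seedlings reached the 2-leaf stage, then pots were flooded to 3 cm over the soil surface. Compound was applied into the water, depth was maintained, and plants stayed in the greenhouse 13 to 14 days before visual scoring (0–100) relative to controls.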

ducksalad = experiment: Test D flooded paddy test; assay type: in vivo, Heteranthera limosa; conditions: 250 g ai/ha, applied to paddy water, visual rating after 13 to 14 days, scale 0 to 100 (0 no effect, 100 complete control)
Summary of the method: as §2

rice = experiment: Test D flooded paddy test; assay type: in vivo, Oryza sativa; conditions: 250 g ai/ha, applied to paddy water, visual rating after 13 to 14 days, scale 0 to 100 (0 no effect, 100 complete control)
Summary of the method: as §2

sedge, umbrella = experiment: Test D flooded paddy test; assay type: in vivo, Cyperus difformis; conditions: 250 g ai/ha, applied to paddy water, visual rating after 13 to 14 days, scale 0 to 100 (0 no effect, 100 complete control)
Summary of the method: as §2

[24] = Preemergence, 125 g ai/ha, 0 to 100 scale, 0 no effect, 100 complete control

COC[C@H]1CN(C(=O)c2cc(-n3cnc(C(C)C)n3)ccc2OC)c2cccc(Cl)c2O1 [Compound 314]
80: Oat, Wild plant response rating (oat, wild [6]; 500 g ai/ha) | Plant response rating, Blackgrass (blackgrass [13]; Postemergence, 125 g ai/ha) | Plant response rating, Corn (corn [14]; Postemergence, 125 g ai/ha) | Plant response rating, Ragweed (ragweed [19]; Postemergence, 125 g ai/ha) | Plant response rating, Ryegrass, Italian (ryegrass, Italian [20]; Postemergence, 125 g ai/ha)
85: Plant response rating, Ducksalad (Flood) (ducksalad)
60: Oat, Wild plant response rating (oat, wild [6]; Test C, 125 g ai/ha) | Plant response rating, Barnyardgrass (barnyardgrass [12]; 500 g ai/ha, postemergence) | Plant response rating, Foxtail, Green (green foxtail [15]; Postemergence, 125 g ai/ha) | Plant response rating, Pigweed, Palmer (pigweed, palmer [18]; Postemergence, 125 g ai/ha)
70: Barnyardgrass plant response rating (barnyardgrass [1]; Test C, 125 g ai/ha) | Blackgrass plant response rating (blackgrass [2]; 500 g ai/ha) | Ragweed plant response rating (ragweed [8]; 500 g ai/ha)
50: Ragweed plant response rating (ragweed [8]; Test C, 125 g ai/ha)
0: Corn plant response rating (corn [3]; 500 g ai/ha) | Corn plant response rating (corn [3]; Test C, 125 g ai/ha)
100: Barnyardgrass plant response rating (barnyardgrass [1]; 500 g ai/ha) | Foxtail, Green plant response rating (green foxtail [4]; 500 g ai/ha) | Foxtail, Green plant response rating (green foxtail [4]; Test C, 125 g ai/ha) | Kochia plant response rating (kochia [5]; 500 g ai/ha) | Pigweed, Palmer plant response rating (pigweed, palmer [7]; 500 g ai/ha) | Pigweed, Palmer plant response rating (pigweed, palmer [7]; Test C, 125 g ai/ha) | Ryegrass, Italian plant response rating (ryegrass, Italian [9]; 500 g ai/ha) | Ryegrass, Italian plant response rating (ryegrass, Italian [9]; Test C, 125 g ai/ha) | Plant response rating, Blackgrass (blackgrass [13]; 500 g ai/ha, postemergence) | Plant response rating, Soybean (soybean [21]; 500 g ai/ha, postemergence) | Plant response rating, Soybean (soybean [21]; Postemergence, 125 g ai/ha) | Plant response rating, Galium (galium; 500 g ai/ha, postemergence) | Plant response rating, Galium (galium; Postemergence, 125 g ai/ha) | Plant response rating, Horseweed (horseweed; Postemergence, 125 g ai/ha) | Plant response rating, Sedge, Umbrella (Flood) (sedge, umbrella)
15: Plant response rating, Barnyardgrass (Flood) (barnyardgrass [23]) | Plant response rating, Rice (Flood) (rice)
40: Soybean plant response rating (soybean [10]; Test C, 125 g ai/ha) | Wheat plant response rating (wheat [11]; 500 g ai/ha) | Plant response rating, Oat, Wild (oat, wild [17]; 500 g ai/ha, postemergence) | Plant response rating, Oat, Wild (oat, wild [17]; Postemergence, 125 g ai/ha)
30: Plant response rating, Barnyardgrass (barnyardgrass [12]; Postemergence, 125 g ai/ha) | Plant response rating, Wheat (wheat [22]; 500 g ai/ha, postemergence)
90: Kochia plant response rating (kochia [5]; Test C, 125 g ai/ha) | Soybean plant response rating (soybean [10]; 500 g ai/ha) | Plant response rating, Corn (corn [14]; 500 g ai/ha, postemergence) | Plant response rating, Foxtail, Green (green foxtail [15]; 500 g ai/ha, postemergence) | Plant response rating, Kochia (kochia [16]; 500 g ai/ha, postemergence) | Plant response rating, Kochia (kochia [16]; Postemergence, 125 g ai/ha) | Plant response rating, Pigweed, Palmer (pigweed, palmer [18]; 500 g ai/ha, postemergence) | Plant response rating, Ragweed (ragweed [19]; 500 g ai/ha, postemergence) | Plant response rating, Ryegrass, Italian (ryegrass, Italian [20]; 500 g ai/ha, postemergence) | Plant response rating, Horseweed (horseweed; 500 g ai/ha, postemergence)
20: Blackgrass plant response rating (blackgrass [2]; Test C, 125 g ai/ha) | Wheat plant response rating (wheat [11]; Test C, 125 g ai/ha) | Plant response rating, Wheat (wheat [22]; Postemergence, 125 g ai/ha)

COC[C@H]1CN(C(=O)c2cc(-n3cnc(C4CCC4)n3)cc3c2OCCO3)c2cccc(Cl)c2O1 [Compound 380]
30: Blackgrass plant response rating (blackgrass [2]; 500 g ai/ha) | Plant response rating, Ducksalad (Flood) (ducksalad)
70: Plant response rating, Ragweed (ragweed [8]; [24]) | Plant response rating, Ryegrass, Italian (ryegrass, Italian [9]; [24]) | Plant response rating, Blackgrass (blackgrass [13]; 500 g ai/ha, postemergence)
100: Foxtail, Green plant response rating (green foxtail [4]; 500 g ai/ha) | Pigweed, Palmer plant response rating (pigweed, palmer [7]; 500 g ai/ha) | Plant response rating, Pigweed, Palmer (pigweed, palmer [7]; [24]) | Plant response rating, Kochia (kochia [16]; 500 g ai/ha, postemergence) | Plant response rating, Kochia (kochia [16]; Postemergence, 125 g ai/ha) | Plant response rating, Pigweed, Palmer (pigweed, palmer [18]; 500 g ai/ha, postemergence) | Plant response rating, Ragweed (ragweed [19]; 500 g ai/ha, postemergence) | Plant response rating, Soybean (soybean [21]; 500 g ai/ha, postemergence) | Plant response rating, Soybean (soybean [21]; Postemergence, 125 g ai/ha) | Plant response rating, Galium (galium; 500 g ai/ha, postemergence) | Plant response rating, Galium (galium; Postemergence, 125 g ai/ha)
60: Plant response rating, Ryegrass, Italian (ryegrass, Italian [20]; 500 g ai/ha, postemergence) | Plant response rating, Horseweed (horseweed; 500 g ai/ha, postemergence) | Plant response rating, Horseweed (horseweed; Postemergence, 125 g ai/ha)
20: Plant response rating, Barnyardgrass (barnyardgrass [1]; [24]) | Plant response rating, Oat, Wild (oat, wild [6]; [24]) | Plant response rating, Barnyardgrass (barnyardgrass [12]; Postemergence, 125 g ai/ha) | Plant response rating, Blackgrass (blackgrass [13]; Postemergence, 125 g ai/ha) | Plant response rating, Foxtail, Green (green foxtail [15]; Postemergence, 125 g ai/ha) | Plant response rating, Wheat (wheat [22]; 500 g ai/ha, postemergence)
0: Plant response rating, Blackgrass (blackgrass [2]; [24]) | Plant response rating, Corn (corn [3]; [24]) | Plant response rating, Kochia (kochia [5]; [24]) | Plant response rating, Wheat (wheat [11]; [24]) | Plant response rating, Oat, Wild (oat, wild [17]; 500 g ai/ha, postemergence) | Plant response rating, Oat, Wild (oat, wild [17]; Postemergence, 125 g ai/ha)
80: Barnyardgrass plant response rating (barnyardgrass [1]; 500 g ai/ha) | Ryegrass, Italian plant response rating (ryegrass, Italian [9]; 500 g ai/ha) | Plant response rating, Foxtail, Green (green foxtail [15]; 500 g ai/ha, postemergence)
55: Plant response rating, Barnyardgrass (Flood) (barnyardgrass [23])
10: Wheat plant response rating (wheat [11]; 500 g ai/ha) | Plant response rating, Corn (corn [14]; Postemergence, 125 g ai/ha) | Plant response rating, Wheat (wheat [22]; Postemergence, 125 g ai/ha) | Plant response rating, Rice (Flood) (rice)
50: Corn plant response rating (corn [3]; 500 g ai/ha) | Plant response rating, Foxtail, Green (green foxtail [4]; [24]) | Plant response rating, Soybean (soybean [10]; [24]) | Plant response rating, Barnyardgrass (barnyardgrass [12]; 500 g ai/ha, postemergence) | Plant response rating, Corn (corn [14]; 500 g ai/ha, postemergence)
90: Kochia plant response rating (kochia [5]; 500 g ai/ha) | Ragweed plant response rating (ragweed [8]; 500 g ai/ha) | Soybean plant response rating (soybean [10]; 500 g ai/ha) | Plant response rating, Pigweed, Palmer (pigweed, palmer [18]; Postemergence, 125 g ai/ha) | Plant response rating, Ragweed (ragweed [19]; Postemergence, 125 g ai/ha)
40: Oat, Wild plant response rating (oat, wild [6]; 500 g ai/ha) | Plant response rating, Ryegrass, Italian (ryegrass, Italian [20]; Postemergence, 125 g ai/ha) | Plant response rating, Sedge, Umbrella (Flood) (sedge, umbrella)
